Source: PubChem BioAssay (NCI)
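Exposure lasted 48 hours, with cells grown in 96-well plates and compounds tested at five concentrations. GI50 marks 50% less growth. At the TGI there is no net growth.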

What was measured:
Test in all cases: DTP human tumour cell line panel, 48 h
[1] = system: SNB-19 CNS
[2] = system: NCI-H522 lung
[3] = system: MDA-MB-231 breast
[4] = system: SF-268 CNS
[5] = system: UACC-62 melanoma
[6] = system: MOLT-4 leukemia
[7] = system: PC-3 prostate
[8] = system: K-562 leukemia
[9] = system: RXF 393 renal
[10] = system: CCRF-CEM leukemia

Compound	TGI [1] [µM]	TGI [2] [µM]	TGI [3] [µM]	TGI [4] [µM]	TGI [5] [µM]	TGI [6] [µM]	TGI [7] [µM]	TGI [8] [µM]	TGI [9] [µM]	TGI [10] [µM]	GI50 [1] [nM]	GI50 [2] [nM]	GI50 [3] [nM]	GI50 [4] [nM]	GI50 [5] [nM]	GI50 [6] [nM]	GI50 [7] [nM]	GI50 [8] [nM]	GI50 [9] [nM]	GI50 [10] [nM]
O=C1OC(OC/C(Br)=C(/Br)COC2OC(=O)C(Cl)=C2Cl)C(Cl)=C1Cl (stereo not given)	37	4.53	17	35.5	29.1	5.44	30.2	5.85	13.4	4.93										
COC(=O)Nc1nc2ccc(S(=O)(=O)c3ccc(NC(=O)Nc4cc(C(F)(F)F)ccc4F)cc3)cc2[nH]1	> 25	> 25	> 25	> 25	> 25	> 25	> 25	> 25	> 25	> 25	> 25000	> 25000	> 25000	> 25000	> 25000	> 25000	> 25000	> 25000	> 25000	> 25000
COc1ccc2c(c1)C=C1CSCC3=Cc4cc(OC)ccc4OC13O2	> 100	0.937	> 100	> 100	> 100	> 100	> 100	> 100	0.645	> 85.3	552	232	568	2860	783	486	360	228	216	328
NS(=O)(=O)c1ccc(N2N=C(c3cccs3)CC2c2ccccc2O)cc1 (stereo not given)	11	1.51	3.19	4.48	5.09	16.9	4.38	15.3	2.2	> 33.3	1230	644	972	1160	1150	1270	1050	1240	733	1400
CCC(=O)c1c(C(F)(F)F)n([O-])c2ccccc2[n+]1=O	32.6	> 21.4	7.93	6.34	4.64	> 100	5.34	33.3	10.2	10.5	5070	2360	2230	1220	1650	577	629	1350	1670	621
Clc1ccc(/C=C/c2nc(Cl)c(-c3ccc(Cl)cc3)c(Cl)n2)cc1	> 100	> 100	> 100	> 100	> 100	> 100	> 100	> 100	> 100	84.8										
